Reference: patent US20170251943A1, “Systems Level State Characteristics in Experimental Treatment of Disease” (priority 2014, published 2017)

Legend:
[1] = tested on: medial forebrain bundle 6-OHDA hemilesioned rat; assay: CNS state characterization (LFP PSDs / spike trains, cortico-basal ganglia-thalamic loop) in dyskinetic 6-OHDA hemilesioned rat; format: in vivo
Experimental: Power spectral densities (PSDs) are calculated with a multitaper method (Pesaran, 2008) (50%-overlapping 8-s windows, 7 tapers) implemented in Chronux 2.0 (Mitra and Bokil, 2007). To stabilize the variance and to emphasize narrowband oscillations over wideband signals, PSDs are normalized to the pink noise background according to Halje et al. (Halje et al., 2012), but with one important adaptation: Due to the complexity of the data it is not practical to manually pick frequency bands with pure pink noise in all structures and conditions to get unbiased estimates of the noise background. Instead the whole frequency axis is divided into 20 logarithmically spaced bands (1-1.3, 1.3-1.7, . . . , 151.3-200 Hz) and the median power of each band is used for the fitting of the pink noise power curve S(f)=A/f^B. The pink noise normalization allows us to describe deviations from the pink noise floor in terms of the unit dBpink. As a final step, an average spectrogram is calculated for each structure, based on the spectrograms for each individual local bipolar LFP time series.
Offline spike sorting can be performed with commercially available software to obtain spike trains of individual neurons, for example Offline Sorter by Plexon Inc. Standard spike train statistics like average firing rate and coefficient of variation is then calculated and used as features in the state-space analysis.
elements, where each element is a measured variable. Typically, there are a couple of thousand variables in such a state description and it is necessary to reduce the dimensionality before it is practical to make further state characterizations. […]
To characterize the CNS effects of experimental treatment of symptoms in levodopa-induced dyskinesia, the most widely used model of this disease condition was employed—the medial forebrain bundle 6-OHDA hemilesioned rat. […] Rats were chronically implanted with 128 recording electrodes according to the methods described above and CNS activity patterns were recorded in a number of experiments performed in four adult female Sprague-Dawley rats. […]

[2] = tested on: medial forebrain bundle 6-OHDA hemilesioned rat; assay: Levodopa-induced dyskinesia, dyskinetic symptoms in 6-OHDA hemilesioned rat; format: in vivo
Text: To characterize the CNS effects of experimental treatment of symptoms in levodopa-induced dyskinesia, the most widely used model of this disease condition was employed—the medial forebrain bundle 6-OHDA hemilesioned rat. In this model, parkinsonism is induced by the injection of this neurotoxin resulting in extensive neurotoxic lesions of midbrain dopaminergic neurons projecting to the forebrain. By injecting the […] in only one of the hemispheres the other hemisphere can be used as an internal control in different recordings conditions/behavioral situations. Following a period of levodopa treatment, animals developed dyskinetic symptoms affecting the side of the body contralateral to the brain lesion (Halje et al., 2012). Thus, neuronal recordings obtained in the parkinsonian and dyskinetic condition can be compared to a healthy control condition. Rats were chronically implanted with 128 recording electrodes according to the methods described above and CNS activity patterns were recorded in a number of experiments performed in four adult female Sprague-Dawley rats.

rats [3] = assay: Behavioral changes in rats treated with psychosis-inducing drugs; format: in vivo, rat; conditions: 10-50 min after injection
rats [4] = assay: CNS state characterization (LFP PSDs, diencephalic/telencephalic structures) in pharmacological psychosis-like states; format: in vivo, rat; conditions: Hippocampus, Nucleus Accumbens, Thalamus; pink noise normalized, FIG. 6
Experimental: Power spectral densities (PSDs) are calculated with a multitaper method (Pesaran, 2008) (50%-overlapping 8-s windows, 7 tapers) implemented in Chronux 2.0 (Mitra and Bokil, 2007). To stabilize the variance and to emphasize narrowband oscillations over wideband signals, PSDs are normalized to the pink noise background according to Halje et al. (Halje et al., 2012), but with one important adaptation: Due to the complexity of the data it is not practical to manually pick frequency bands with pure pink noise in all structures and conditions to get unbiased estimates of the noise background. […] As a final step, an average spectrogram is calculated for each structure, based on the spectrograms for each individual local bipolar LFP time series. […]
For this purpose, a number of diencephalic and telencephalic structures were recorded in parallel including: hippocampus [corresponding to anterior hippocampus in humans], nucleus accumbens [core and shell], medial prefrontal cortex and anterior gyrus cinguli (adapted to rodent anatomy), the mediodorsal nucleus and the medial geniculate nucleus in thalamus.

Compound: CCCN(CCC)C1CCc2cccc(O)c2C1 (stereo not shown) [8-OH-DPAT]
- shift of CNS state in state space ([1]; dyskinetic rat, state spaces from spike trains and LFP PSDs, FIGS. 4 and 5): primarily shifted the dyskinetic state back towards the parkinsonian state
- effect on dyskinetic symptoms ([2]; 1 mg/kg and 0.4 mg/kg i.p. at the time point of peak dyskinesia, two experiments): effectively suppress dyskinetic symptoms

Compound: CNC1(c2ccccc2Cl)CCCCC1=O (stereo not shown) [Ketamine]
- behavioral change (locomotion) (rats [3]): increased locomotion

Compound: CCN(CC)C(=O)[C@@H]1C=C2c3cccc4[nH]cc(c34)C[C@H]2N(C)C1 [LSD, lysergic acid diethylamide]
- LFP power spectra of the drug-induced psychosis-like state (rats [4]): high-frequency narrow band oscillation in n. Accumbens

Compound: COc1ccccc1N1CCN(CCN(C(=O)C2CCCCC2)c2ccccn2)CC1 [WAY100635]
- reversal of 8-OH-DPAT effect on CNS state (LFP power spectral densities) ([1]; dyskinetic+8-OH-DPAT rat, LFP PSDs in eight structures, FIG. 4): reversed the effect of 8-OH-DPAT inducing a state that closely resembles the initial dyskinetic state
- reversal of 8-OH-DPAT effect on CNS state (relative firing rates of neurons) ([1]; dyskinetic+8-OH-DPAT rat, firing rates in eight structures of lesioned hemisphere, FIG. 5): reversed the effect of 8-OH-DPAT to a state closely resembling the initial dyskinetic state
- reversal of the anti-dyskinetic effect of the 5-HT1A agonist 8-OH-DPAT ([2]; given after 8-OH-DPAT in dyskinetic rat): fully reversed
